From patent US7510836B2, “Alpha arteether resistance domain” (priority 2003, dated 2009)

Tests used:
[1] = test system: E. coli ET8000; assay: Phenotype of strain (resistance or sensitivity); type: cell-based, Escherichia coli; parameters: key: R: resistance; S: sensitivity; settings: gyrA GAC-AAC(259), Asp-Asn 87
From the text: (§1) The strains of E coli of the investigation, their phenotypes in terms of a-arteether (resistance or sensitivity, superscript R or S) or antibiotic resistance or sensitivity, change in nucleotide position of the gyrase A gene leading to the phenotype, corresponding amino acid change in the protein and the position of amino acid change are being described. Always the phenotype a-arteether resistance is accompanied with quinolone or fluoroquinolone sensitivity and vice versa.

[2] = test system: E. coli DH5α; assay: Phenotype of strain (resistance or sensitivity); type: cell-based, Escherichia coli; parameters: key to Phenotype: R: resistance; S: sensitivity; settings: for Sensitivity or resistance of the strain (words): E.coli DH5a (gyrA 96; Asp87Asn)
Experimental: (§2) As a result of this mutation, the said strain is also resistant to a drug called nalidixic acid.
(§3) To ascertain the involvement of gyrA mutation, another E.coli strain NK 5819 which is also GyrA″ and nalidixic acid resistant was tested for arteether sensitivity. As expected, strain NK5819 was also sensitive only to a-isomer of arteether. […] The assays for arteether sensitivity was performed by the standard single disk diffusion method (Bauer et al, 1966). As a next step, we isolated gyrA mutants of E.coli strain CA 8000, which is otherwise Gyr+ and nalidixic acid sensitive. The gyrA mutants of CA8000 were isolated as nalidixic acid resistant colonies (20 ug/ml), after mutagenic treatment with NTG ([…]). The isolated CA8000 gyrA mutants were also sensitive only to a isomer of arteether. […] To define precisely the involvement of gyr genes only in the a-arteether sensitivity, we utilised two recombinant clones (pMK 90 and pMK47 containing functional gyr A and gyrB genes respectively) in trans-complementation assays. For this purpose, we mobilized the plasmid clones into the E.coli gyr mutant strains. The resulting transformants were now nalidixic acid sensitive and a-arteether resistant. This constituted the direct evidence supporting our observation that DNA gyrase enzyme alone is involved in conferring a-arteether sensitivity to E.coli strain. […] DNA gyrase enzyme is essential for the bacterial growth. This enzyme transiently breaks the DNA strands and introduces negative superhelical turns in an ATP-dependent process. The E.coli DNA gyrase enzyme is a tetramer with two subunits A and B. These two subunits are nalidixic acid and coumermycin sensitive respectively (U.S. Pat. No. 6,127,405 and a co-pending patent).
as §1

[3] = test system: E. coli CA8005; assay: Phenotype of strain (resistance or sensitivity); type: cell-based, Escherichia coli; parameters: key: R: resistance; S: sensitivity; settings: gyrA GAC-GGC(260), Asp-Gly 87
From the text: (§4) In order to develop an arteether resistant mutants from an arteether sensitive strains a reverse strategy was applied. Quinoline/fluoroquinolone (Q/FQs) resistant strains were developed spontaneously i.e. screening overnight log phase culture of the Quinolone/fluoroquinolone sensitive i.e. arteether resistant strain (E coli CA 8000) on the poison agar plate of the Q/FQs. The Q/FQ resistant mutants which appeared on the poison agar plates were first purified through single colony purification and then checked for their arteether sensitivity. These arteether sensitive mutants on the contrary when checked for their Q/Fqs resistance they show different level of Q/FQs resistance.
as §1

[4] = test system: E. coli CA8006; assay: Phenotype of strain (resistance or sensitivity); type: cell-based, Escherichia coli; parameters: key: R: resistance; S: sensitivity; settings: gyrA TCG-TTG(248), Ser-Leu 83
From the text: as §4, §1

[5] = test system: E. coli CA8010; assay: Phenotype of strain (resistance or sensitivity); type: cell-based, Escherichia coli; parameters: key: R: resistance; S: sensitivity; settings: gyrA TCG-TTG(248), Ser-Leu 83
From the text: as §4, §1

[6] = test system: E. coli CA8007; assay: Phenotype of strain (resistance or sensitivity); type: cell-based, Escherichia coli; parameters: key: R: resistance; S: sensitivity; settings: gyrA TCG-TTG(248), Ser-Leu 83
From the text: as §4, §1

[7] = test system: E. coli CA8009; assay: Phenotype of strain (resistance or sensitivity); type: cell-based, Escherichia coli; parameters: key: R: resistance; S: sensitivity; settings: gyrA TCG-TTG(248), Ser-Leu 83
From the text: as §4, §1

[8] = test system: E. coli CA8002; assay: Phenotype of strain (resistance or sensitivity); type: cell-based, Escherichia coli; parameters: key: R: resistance; S: sensitivity; settings: gyrA GGT-TGT(241), Gly-Cys 81
From the text: as §4, §1

[9] = test system: E. coli CA8003; assay: Phenotype of strain (resistance or sensitivity); type: cell-based, Escherichia coli; parameters: key: R: resistance; S: sensitivity; settings: gyrA GAC-GGC(260), Asp-Gly 87
From the text: as §4, §1

[10] = test system: E. coli CA8001; assay: Phenotype of strain (resistance or sensitivity); type: cell-based, Escherichia coli; parameters: key: R: resistance; S: sensitivity; settings: gyrA GGT-TGT(241), Gly-Cys 81
From the text: as §4, §1

[11] = test system: E. coli CA8012; assay: Phenotype of strain (resistance or sensitivity); type: cell-based, Escherichia coli; parameters: key: R: resistance; S: sensitivity; settings: gyrA GGT-GAT(242), Gly-Asp 81
From the text: as §4, §1

[12] = test system: E.coli strains which do not carry gyr mutation (wild type strains); assay: Arteether sensitivity of strains without gyr mutation; type: cell-based, Escherichia coli
Experimental: as §2
To ascertain the involvement of gyrA mutation, another E.coli strain NK 5819 which is also GyrA″ and nalidixic acid resistant was tested for arteether sensitivity. As expected, strain NK5819 was also sensitive only to a-isomer of arteether. […] The assays for arteether sensitivity was performed by the standard single disk diffusion method (Bauer et al, 1966). As a next step, we isolated gyrA mutants of E.coli strain CA 8000, which is otherwise Gyr+ and nalidixic acid sensitive. The gyrA mutants of CA8000 were isolated as nalidixic acid resistant colonies (20 ug/ml), after mutagenic treatment with NTG ([…]). The isolated CA8000 gyrA mutants were also sensitive only to a isomer of arteether. […] To define precisely the involvement of gyr genes only in the a-arteether sensitivity, we utilised two recombinant clones (pMK 90 and pMK47 containing functional gyr A and gyrB genes respectively) in trans-complementation assays. For this purpose, we mobilized the plasmid clones into the E.coli gyr mutant strains. The resulting transformants were now nalidixic acid sensitive and a-arteether resistant. This constituted the direct evidence supporting our observation that DNA gyrase enzyme alone is involved in conferring a-arteether sensitivity to E.coli strain. […]

[13] = test system: gyrA mutants of E.coli strain CA 8000 (nalidixic acid resistant colonies after NTG); assay: Arteether sensitivity, single disk diffusion; type: cell-based, Escherichia coli; settings: isolated CA8000 gyrA mutants
Experimental: (§5) To ascertain the involvement of gyrA mutation, another E.coli strain NK 5819 which is also GyrA″ and nalidixic acid resistant was tested for arteether sensitivity. As expected, strain NK5819 was also sensitive only to a-isomer of arteether. […] The assays for arteether sensitivity was performed by the standard single disk diffusion method (Bauer et al, 1966). As a next step, we isolated gyrA mutants of E.coli strain CA 8000, which is otherwise Gyr+ and nalidixic acid sensitive. The gyrA mutants of CA8000 were isolated as nalidixic acid resistant colonies (20 ug/ml), after mutagenic treatment with NTG ([…]). The isolated CA8000 gyrA mutants were also sensitive only to a isomer of arteether. […] To define precisely the involvement of gyr genes only in the a-arteether sensitivity, we utilised two recombinant clones (pMK 90 and pMK47 containing functional gyr A and gyrB genes respectively) in trans-complementation assays. For this purpose, we mobilized the plasmid clones into the E.coli gyr mutant strains. The resulting transformants were now nalidixic acid sensitive and a-arteether resistant. This constituted the direct evidence supporting our observation that DNA gyrase enzyme alone is involved in conferring a-arteether sensitivity to E.coli strain. […] DNA gyrase enzyme is essential for the bacterial growth. […]

[14] = test system: E.coli strain MTCC 482 (GyrB, defective in DNA gyrase B subunit); assay: Arteether sensitivity, single disk diffusion; type: cell-based, Escherichia coli; settings: E.coli MTCC 482 (gyrB)
Experimental: as §5

[15] = test system: E. coli NK5819; assay: Phenotype of strain (resistance or sensitivity); type: cell-based, Escherichia coli; parameters: key to Phenotype: R: resistance; S: sensitivity
Experimental: as §3, §1

[16] = test system: E. coli mutant strain Rev. 3; assay: Phenotype of revertant (resistance or sensitivity); type: cell-based, Escherichia coli; parameters: key: R: resistance; S: sensitivity; settings: gyrA GAT-GGT(242), Asp-Gly 81
From the text: as §1
(§6) The commercially available strain E. coli DH5[…] (Stratagene, USA) is sensitive to […]-arteether but resistant to quinolone/fluoroquinolone due to a mutation at 87th aminoacid position of the gyr A protein (Aspartic acid of wild type is changed to Aspargine) with corresponding change in the codon GAC to AAC. This strain was used to screen […]-arteether resistant mutations. The observation was startling as the […]-arteether resistant mutants are the exact reversion at the 87th position of the aminoacid of gyrase A subunit i.e. Aspargine changed to aspartic acid, with corresponding change in the codon AAC to GAC.

[17] = test system: E. coli mutant strain Rev 4; assay: Phenotype of revertant (resistance or sensitivity); type: cell-based, Escherichia coli; parameters: key: R: resistance; S: sensitivity; settings: gyrA GAT-GGT(242), Asp-Gly 81
From the text: as §1, §6

[18] = test system: E. coli mutant strain Rev. 1; assay: Phenotype of revertant (resistance or sensitivity); type: cell-based, Escherichia coli; parameters: key: R: resistance; S: sensitivity; settings: gyrA GAT-GGT(242), Asp-Gly 81
From the text: as §1, §6

[19] = test system: E. coli mutant strain AR 9 CA8014; assay: Phenotype of revertant (resistance or sensitivity); type: cell-based, Escherichia coli; parameters: key: R: resistance; S: sensitivity; settings: gyrA AAC-GAC(259), Asn-Asp 87
From the text: as §1, §6

[20] = test system: E. coli mutant strain Rev. 2; assay: Phenotype of revertant (resistance or sensitivity); type: cell-based, Escherichia coli; parameters: key: R: resistance; S: sensitivity; settings: gyrA GAT-GGT(242), Asp-Gly 81
From the text: as §1, §6

[21] = test system: E. coli mutant strain Rev 5; assay: Phenotype of revertant (resistance or sensitivity); type: cell-based, Escherichia coli; parameters: key: R: resistance; S: sensitivity; settings: gyrA GAT-GGT(242), Asp-Gly 81
From the text: as §1, §6

[22] = test system: E. coli mutant strain Rev 6; assay: Phenotype of revertant (resistance or sensitivity); type: cell-based, Escherichia coli; parameters: key: R: resistance; S: sensitivity; settings: gyrA GAT-GGT(242), Asp-Gly 81
From the text: as §1, §6

[23] = test system: E.coli strains which do not carry gyr mutation (wild type strains); settings: U.S. Pat. No. 6,127,405; cited from earlier work
[24] = test system: E.coli gyr mutant strains transformed with pMK 90 and pMK47 (functional gyr A and gyrB genes); assay: Trans-complementation assay; type: cell-based, Escherichia coli; settings: gyr mutant strains carrying pMK 90 / pMK47
Experimental: as §5

[25] = test system: gyr mutant strains of E.coli; settings: U.S. Pat. No. 6,127,405; cited from earlier work

For `CCO[C@@H]1O[C@@H]2O[C@]3(C)CC[C@H]4[C@H](C)CC[C@@H]([C@H]1C)[C@@]24OO3` [a-arteether, α-arteether], the Phenotype [1] was “S”, the Phenotype ([2]; DH5α, gyrA GAC-AAC(259), Asp-Asn 87) was “S” and the “Sensitivity or resistance of the strain (words)” value ([2]; listed as a isomer of arteether) was “able to inhibit the growth”. For the same molecule, the “Sensitivity or resistance of the strain (words)” value ([2]; listed as α-arteether) was “sensitive”, the “Sensitivity or resistance of the strain (words)” value ([2]; listed as […]-arteether) was “sensitive” and the Phenotype [3] was “S”. The Phenotype [4] was “S”, the Phenotype [5] was “S” and the Phenotype [6] was “S”. For the same molecule, the Phenotype [7] was “S”, the Phenotype [8] was “S” and the Phenotype [9] was “S”. The Phenotype [10] was “S”, the Phenotype [11] was “S” and the “Sensitivity or resistance” value [12] was “invariably resistant”. The “Arteether sensitivity” value [13] was “sensitive”, the “Arteether sensitivity” value [14] was “susceptible” and the “Sensitivity or resistance of the strain (words)” value ([15]; E.coli NK 5819 (GyrA mutant)) was “sensitive”. For the same molecule, the Phenotype ([15]; NK5819, gyrA GAC-TAC(259), Asp-Gly 87) was “S”, the Phenotype [16] was “R” and the Phenotype [17] was “R”. The Phenotype [18] was “R”, the Phenotype [19] was “R” and the Phenotype [20] was “R”. For the same molecule, the Phenotype [21] was “R”, the Phenotype [22] was “R” and the “Inhibitory activity” value [23] was “ineffective”. The “Sensitivity or resistance of transformants” value [24] was “resistant” and the “Inhibitory activity” value [25] was “inhibitory”.
